Target: acetylcholinesterase (T.californica) (Tetronarce californica, UniProt P04058)
Assay: Antibody modulation of inhibition by Compound II and reversal by cholylglycine
Assay type: biochemical
Description: Antibody against cholylglycine-bovine serum albumin (BSA) conjugates were raised in rabbits, and the rabbit serum obtained by conventional techniques. The anti-cholylglycine IgG fraction was obtained by ammonium sulfate fractionation and ion exchange chromatography. The concentration of antibody was not determined but was adjusted from a pooled fraction from the ion exchange column to give best modulation of inhibition by Compound II. […] The experiment is carried out on an ABA-100® model bichromatic analyzer (Abbott Laboratories, North Chicago, Illinois) and the following settings were used:
The substrate solution and buffer are placed in the primary syringe of the dilution plate. The buffer is pH 7.0, 0.1 M potassium phosphate, 0.1% gelatin. The substrate is acetylthiocholine at 5.0×10^-4 M with DTNB at 1.6×10^-4 M as indicator. […] In all cases, the acetylcholinesterase (T.californica) concentration is approximately 2×10^-10 M and Compound II, the inhibitor, concentration is 10×10^-7 M. Where cholylglycine is added, the concentration in the sample cup is 10^-3 M. The sample cup contains pH 7.0, 0.1 M potassium phosphate buffer containing 0.1% gelatin plus the indicated components in the table: […]

[1] = enzyme + the substance only, T = 0 (E alone .246)
[2] = enzyme + the substance only, T = 13 min (E alone .237)
[3] = enzyme + the substance only, T = 25 min (E alone .234)
[4] = enzyme + the substance only, T = 36 min (E alone .230)

Chain of acetylcholinesterase (T.californica) (P04058 22-564): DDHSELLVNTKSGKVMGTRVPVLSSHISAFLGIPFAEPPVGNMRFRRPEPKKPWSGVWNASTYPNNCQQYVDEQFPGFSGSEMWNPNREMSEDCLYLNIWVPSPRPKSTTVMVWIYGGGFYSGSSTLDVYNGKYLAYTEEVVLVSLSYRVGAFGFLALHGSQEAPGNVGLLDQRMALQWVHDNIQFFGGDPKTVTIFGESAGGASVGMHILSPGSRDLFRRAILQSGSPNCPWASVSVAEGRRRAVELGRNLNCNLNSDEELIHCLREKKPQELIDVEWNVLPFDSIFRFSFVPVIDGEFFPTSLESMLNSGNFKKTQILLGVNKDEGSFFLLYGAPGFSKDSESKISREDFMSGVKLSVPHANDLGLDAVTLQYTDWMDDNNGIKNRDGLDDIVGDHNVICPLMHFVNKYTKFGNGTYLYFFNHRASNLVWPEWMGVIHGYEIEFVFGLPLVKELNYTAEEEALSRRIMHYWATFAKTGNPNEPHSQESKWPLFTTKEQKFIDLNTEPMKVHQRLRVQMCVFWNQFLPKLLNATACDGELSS

SMILES | Change in Ad in 5 Minutes (E + Ab + CG (10^-3 M), no inhibitor, T = 0) | Change in Ad in 5 Minutes (E + Ab + CG (10^-3 M), no inhibitor, T = 13 min) | Change in Ad in 5 Minutes (E + Ab + CG (10^-3 M), no inhibitor, T = 25 min) | Change in Ad in 5 Minutes (E + Ab + CG (10^-3 M), no inhibitor, T = 36 min) | Change in Ad in 5 Minutes [1] | Change in Ad in 5 Minutes [2] | Change in Ad in 5 Minutes [3] | Change in Ad in 5 Minutes [4] | Change in Ad in 5 Minutes (E + I + Ab + CG (10^-3 M), T = 0) | Change in Ad in 5 Minutes (E + I + Ab + CG (10^-3 M), T = 13 min) | Change in Ad in 5 Minutes (E + I + Ab + CG (10^-3 M), T = 25 min) | Change in Ad in 5 Minutes (E + I + Ab + CG (10^-3 M), T = 36 min) | Change in Ad in 5 Minutes (E + I + Ab, T = 0) | Change in Ad in 5 Minutes (E + I + Ab, T = 13 min) | Change in Ad in 5 Minutes (E + I + Ab, T = 25 min) | Change in Ad in 5 Minutes (E + I + Ab, T = 36 min) | Change in Ad in 5 Minutes (E + I + CG (10^-3 M), T = 0) | Change in Ad in 5 Minutes (E + I + CG (10^-3 M), T = 13 min) | Change in Ad in 5 Minutes (E + I + CG (10^-3 M), T = 25 min) | Change in Ad in 5 Minutes (E + I + CG (10^-3 M), T = 36 min)
C[C@H](CCC(=O)NCC(=O)O)[C@H]1CC[C@H]2[C@@H]3[C@H](O)C[C@@H]4C[C@H](O)CC[C@]4(C)[C@H]3C[C@H](O)[C@]12C [CG, cholylglycine, reference compound] | .225 Ad/5 Min. | .223 Ad/5 Min. | .216 Ad/5 Min. | .207 Ad/5 Min. | .236 Ad/5 Min. | .228 Ad/5 Min. | .220 Ad/5 Min. | .211 Ad/5 Min. |  |  |  |  |  |  |  |  |  |  |  | 
CCOP(=O)(OCCCCCNC(=O)CCCCCNC(=O)CC[C@@H](C)[C@H]1CC[C@H]2[C@@H]3[C@H](O)C[C@@H]4C[C@H](O[Si](C)(C)C(C)(C)C)CC[C@]4(C)[C@H]3C[C@H](O)[C@]12C)Oc1ccc2ccc[n+](C)c2c1 (stereo partly drawn) [Compound II] |  |  |  |  | .226 Ad/5 Min. | .072 Ad/5 Min. | .025 Ad/5 Min. | .013 Ad/5 Min. | .224 Ad/5 Min. | .078 Ad/5 Min. | .032 Ad/5 Min. | .017 Ad/5 Min. | .235 Ad/5 Min. | .192 Ad/5 Min. | .164 Ad/5 Min. | .147 Ad/5 Min. | .224 Ad/5 Min. | .062 Ad/5 Min. | .022 Ad/5 Min. | .013 Ad/5 Min.
